The term pIC50 denotes the negative decadic logarithm of the IC50, by convention in mol/L. Usually pKi stands for −log10 of the Ki, conventionally taken in molar units. As usually defined, the inhibition is the relative decrease from the control value, in per cent.

pIC50, pKi: −log10 of the molar value.

One test deals with T1, BACE1 (Homo sapiens (Human), UniProt P56817). The test is described as follows: Measurement of Aβ production inhibition in cell (SK-N-BE(2) neuroblastoma cells, Aβ40 ELISA). The conditions noted are these: Test Example 3 IC50, Aβ40 production, SK-N-BE(2) cells, 6 hours. Background: An ELISA detects its analyte on a solid surface through an enzyme-linked reagent.
Target sequence in this assay (P56817 46-501): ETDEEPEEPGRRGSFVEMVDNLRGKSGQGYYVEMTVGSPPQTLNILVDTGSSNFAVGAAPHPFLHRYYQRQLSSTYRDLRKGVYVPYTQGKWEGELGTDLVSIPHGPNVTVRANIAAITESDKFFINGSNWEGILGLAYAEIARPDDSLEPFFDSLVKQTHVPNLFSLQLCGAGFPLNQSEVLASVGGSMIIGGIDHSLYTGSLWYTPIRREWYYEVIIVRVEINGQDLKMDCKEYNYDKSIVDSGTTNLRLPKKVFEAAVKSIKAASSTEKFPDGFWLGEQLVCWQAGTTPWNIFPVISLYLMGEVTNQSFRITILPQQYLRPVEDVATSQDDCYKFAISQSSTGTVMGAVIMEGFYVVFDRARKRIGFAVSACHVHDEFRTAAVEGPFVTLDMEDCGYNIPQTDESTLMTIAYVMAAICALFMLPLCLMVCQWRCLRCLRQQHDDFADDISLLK
Protocol: The potency of compounds against BACE1 activity was determined in a cellular assay of Aβ production. […] Test compounds were dissolved in dimethyl sulfoxide and diluted with dimethyl sulfoxide and put into RPMI1640/5% FBS/penicillin-streptomycin media (final dimethyl sulfoxide concentration is 0.5%). […] CellTiter-Glo Substrate was dissolved into CellTiter-Glo Buffer and added to the plates in 95 μL/well. After shaking the plates for 2 minutes, the whole sample was transferred into a white 96-well plate and luminescence was measured for ATP quantification as the cell viability. Aβ concentration measured by ELISA was normalized by the viability of the corresponding cells.
`COc1cncc(-c2ccc3c(c2)[C@@]2(COC(N)=N2)C2(COC2)[C@@H](C)O3)c1` (racemic) [RP 81] had a pIC50 of 6.29. The same measure, in the same setting: the figure for `CC#Cc1ccnc(-c2ccc3c(c2)C2(COC(N)=N2)C2(COC2)CO3)c1` (stereo not shown) [RP 56] is 6.13.

Another test deals with T1, BACE1. The test is described as follows: Measurement of BACE1 inhibition by fluorescence resonance energy transfer (FRET), MCA substrate. The conditions noted are these: read-out: Test Example 1 BACE1 MCA Ki; FRET, MCA substrate.
Target sequence in this assay (P56817 75-416): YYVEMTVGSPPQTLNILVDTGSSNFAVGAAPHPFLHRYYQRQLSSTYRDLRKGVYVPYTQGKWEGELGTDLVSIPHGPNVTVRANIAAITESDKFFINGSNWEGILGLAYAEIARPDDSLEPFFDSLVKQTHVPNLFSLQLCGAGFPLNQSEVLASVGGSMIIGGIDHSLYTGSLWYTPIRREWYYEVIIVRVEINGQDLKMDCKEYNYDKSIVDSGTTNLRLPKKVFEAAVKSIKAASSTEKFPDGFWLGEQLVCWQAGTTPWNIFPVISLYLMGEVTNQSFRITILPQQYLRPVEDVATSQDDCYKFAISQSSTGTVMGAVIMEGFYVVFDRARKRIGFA
Turning to `NC1=NC2(CO1)c1cc(NC(=O)c3ccc(Cl)cn3)ccc1OCC21CC1` (stereo not shown) [RP 32], the pKi is 6.42.

Still in this test, the particulars now being: read-out: Test Example 1 IC50; FRET, MCA-SEVNLDAEFK(DNP)-NH2 substrate, pH 4.4.
In the case of `COc1cncc(-c2ccc3c(c2)[C@@]2(COC(N)=N2)C2(COC2)[C@@H](C)O3)c1` (racemic) [RP 81], the pIC50 was 5.72. With `COc1cc(-c2ccc3c(c2)C2(COC(N)=N2)C2(COC2)C(C)(C)O3)c(F)cn1` (stereo not shown) [RP 161], the pIC50 is 5.85. The same measure, in the same setting: as for `NC1=NC2(CO1)c1cc(Br)ccc1OCC21CCCO1` (single isomer, unassigned) [RP 1b, 6′-bromo-4,5-dihydro-3H-dispiro[furan-2,3′-chromene-4′,4″-[1,3]oxazol]-2″-amine], the figure is 3.86; as for `CCC1Oc2ccc(Br)cc2C2(COC(N)=N2)C12COC2` (single isomer, unassigned) [RP 9a], 4.76; as for `Cc1cccc(CCc2ccc3c(c2)C2(COC(N)=N2)C2(COC2)CO3)c1` (stereo not shown) [RP 38], 4.76.

Take `CCCC1Oc2ccc(Br)cc2C2(C=C(N)OC2)C12COC2` (single isomer, unassigned) [RP 11b]: the pIC50 was 4.76. On the same count and under the same terms, as for `NC1=NC2(CO1)c1cc(-c3ccc(F)nc3F)ccc1OC1(CCC1)C21COC1` (stereo not shown) [RP 121], the figure is 5.47; as for `NC1=NC2(CO1)c1cc(Br)ccc1OC1(CCC1)C21COC1` (stereo not shown) [RP 3], 4.47. The same measure, in the same setting: as for `NC1=NC2(CO1)c1cc(Br)ccc1OCC21CCCO1` (single isomer, unassigned) [RP 1a, 6′-bromo-4,5-dihydro-3H-dispiro[furan-2,3′-chromene-4′,4″-[1,3]oxazol]-2″-amine], the figure is 4.13. On the same count and under the same terms, the figure for `CC(C)CC1Oc2ccc(Br)cc2C2(COC(N)=N2)C12COC2` (single isomer, unassigned) [RP 13b] is 4.71; for `CCCC1Oc2ccc(Br)cc2C2(C=C(N)OC2)C12COC2` (single isomer, unassigned) [RP 11a] it is 4.81; for `NC1=NC2(CO1)c1cc(Nc3ccccn3)ccc1OCC21COC1` (stereo not shown) [RP 25] it is 4.43. Turning to `COCCCc1ccc2c(c1)C1(COC(N)=N1)C1(COC1)CO2` (stereo not shown) [RP 35], the pIC50 was 4.59. On to `NC1=NC2(CO1)c1cc(-c3ccccc3F)ccc1OC1(CCC1)C21COC1` (stereo not shown) [RP 124], for which the pIC50 was 5.44. `CCC/C=C/c1ccc2c(c1)C1(COC(N)=N1)C1(COC1)C(C)(C)O2` (stereo not shown) [RP 167]: the pIC50 is 6.06. Regarding `NC1=NC2(CO1)c1cc(Br)c(F)cc1OCC21CC1` (stereo not shown) [RP 18], the pIC50 was 4.38. In the case of `NC1=NC2(COC1)c1cc(Br)ccc1OCC21CC1` (stereo not shown) [RP 214, 6′-bromo-6″H-dispiro[cyclopropane-1,3′-chromene-4′,3″-[1,4]oxazin]-5″-amine], the pIC50 was 4.39. On the same count and under the same terms, as for `NC1=NC2(CO1)c1cc(Br)ccc1OC(C1CC1)C21COC1` (single isomer, unassigned) [RP 12b], the figure is 4.09.

On to `CC(C)CC1Oc2ccc(Br)cc2C2(COC(N)=N2)C12COC2` (single isomer, unassigned) [RP 13a], for which the pIC50 is 4.95.

Regarding `COc1cc(-c2ccc3c(c2)C2(COC(N)=N2)C2(COC2)C(C)(C)O3)c(Cl)cn1` (stereo not shown) [RP 162], the pIC50 is 5.98.

As to `NC1=NC2(CO1)c1cc(Br)ccc1OCC21CC1` (stereo not shown) [RP 17], the pIC50 is 4.52. Same read-out and setting: the figure for `CC1CC=C(c2ccc3c(c2)C2(COC(N)=N2)C2(COC2)C(C)(C)O3)CC1` (stereo not shown) [RP 166] is 5.44; for `CC1(C)Oc2ccc(-c3ccnc(Cl)c3Cl)cc2C2(COC(N)=N2)C12COC2` (stereo not shown) [RP 159] it is 5.67; for `NC1=NC2(CO1)c1cc(-c3cccnc3C(F)(F)F)ccc1OC1(CCC1)C21COC1` (stereo not shown) [RP 212] it is 4.75. On the same count and under the same terms, as for `NC1=NC2(COC1)c1cc(Br)ccc1OCC21COC1` (stereo not shown) [RP 114, 6′-bromo-6H-dispiro[1,4-oxazine-3,4′-chromene-3′,3″-oxetan]-5-amine], the figure is 4.17; as for `NC1=NC2(CO1)c1cc(-c3ccc(F)nc3)ccc1OC1(CCC1)C21COC1` (stereo not shown) [RP 119], 5.45; as for `CCC1Oc2ccc(Br)cc2C2(COC(N)=N2)C12COC2` (single isomer, unassigned) [RP 9b], 4.61. Still for that read-out and setting: the figure for `NC1=NC2(CO1)c1cc(-c3ccccc3)ccc1OC1(CCC1)C21COC1` (stereo not shown) [RP 123] is 5.47; for `NC1=NC2(CO1)c1cc(-c3cncnc3)ccc1OCC21CCCO1` (stereo not shown) [RP 98] it is 4.19. Turning to `CC1(C)Oc2ccc(-c3cncnc3)cc2C2(COC(N)=N2)C12COC2` (single isomer, unassigned) [RP 51a, 2′,2′-dimethyl-6′-(pyrimidin-5-yl)dispiro[1,3-oxazole-4,4′-chromene-3′,3″-oxetan]-2-amine], the pIC50 is 4.31. Regarding `NC1=NC2(CO1)c1cc(Br)ccc1OCC21CCC1` (stereo not shown) [RP 8], the pIC50 was 4.21. On the same count and under the same terms, the figure for `NC1=NC2(CO1)c1cc(Br)ccc1OC(C1CC1)C21COC1` (single isomer, unassigned) [RP 12a] is 4.41; for `NC1=NC2(c3cc(Br)ccc3OCC23CC3)c2cccc(F)c21` (stereo not shown) [RP 40, 6′-bromo-4″-fluorodispiro[cyclopropane-1,3′-chromene-4′,1″-isoindol]-3″-amine] it is 4.33. Still for that read-out and setting: as for `CC1(C)Oc2ccc(-c3cncc(C#N)c3)cc2C2(COC(N)=N2)C12COC2` (stereo not shown) [RP 160], the figure is 6.01; as for `NC1=NC2(CO1)c1cc(Br)ccc1OC(CCC(F)(F)F)C21COC1` (single isomer, unassigned) [RP 14a], 4.72; as for `NC1=NC2(CO1)c1cc(Br)ccc1OC(CCC(F)(F)F)C21COC1` (single isomer, unassigned) [RP 14b], 4.35. Still for that read-out and setting: as for `CCSc1cccc(-c2ccc3c(c2)C2(COC(N)=N2)C2(COC2)C(C)(C)O3)c1` (stereo not shown) [RP 145], the figure is 6.03; as for `NC1=NC2(CO1)c1cc(Br)ccc1OCC21COC1` (stereo not shown) [RP 2], 4.22.

As to `NC1=NC2(CO1)c1cc(Br)ccc1OCC21CC(F)(F)C1` (stereo not shown) [RP 188], the pIC50 is 4.30. Still for that read-out and setting: as for `NC1=NC2(c3cc(Br)ccc3OCC23CC3)C(F)(F)CO1` (stereo not shown) [RP 216, 6′-bromo-5″,5″-difluoro-5″,6″-dihydrodispiro[cyclopropane-1,3′-chromene-4′,4″-[1,3]oxazin]-2″-amine], the figure is 4.25; as for `CC1(C)Oc2ccc(-c3cccc(OCC(F)(F)F)c3)cc2C2(COC(N)=N2)C12COC2` (stereo not shown) [RP 143], 5.90.

Take `Cc1ncccc1-c1ccc2c(c1)C1(COC(N)=N1)C1(COC1)C1(CCC1)O2` (stereo not shown) [RP 74]: the pIC50 is 4.45. Same read-out and setting: the figure for `CC1(C)Oc2ccc(C3=CCCCCC3)cc2C2(COC(N)=N2)C12COC2` (stereo not shown) [RP 165] is 6.12; for `NC1=NC2(CO1)c1cc(-c3cncnc3)ccc1OC(C1CC1)C21COC1` (stereo not shown) [RP 89] it is 5.33. With `N#Cc1cc(-c2ccc3c(c2)C2(COC(N)=N2)C2(COC2)C2(CCC2)O3)ccc1F` (stereo not shown) [RP 134], the pIC50 was 5.44.

Still in this test, the particulars now being: read-out: Test Example 1 inhibition.
Consider `COc1cnc(C(=O)Nc2ccc3c(c2)C2(COC(N)=N2)C2(COC2)C(C)(C)O3)cn1` (stereo in doubt) [Example 229a, N-[(4S)-2-amino-2′,2′-dimethyldispiro[1,3-oxazole-4,4′-chromene-3′,3″-oxetan]-6′-yl]-5-methoxypyrazine-2-carboxamide], for which the inhibition at 30 µM was determined as 47.6%.

Values taken from patent US8975415B2, “Chromane compounds” (CoMentis, Inc., priority 2012, dated 2015).
